The values that follow come from US20260345574A1, “POTENT AND SELECTIVE IRREVERSIBLE INHIBITORS OF IRAK1” (Dana-Farber Cancer Institute, Inc., priority 2022, published 2026).

Experiment [1] deals with IRAK1 (Homo sapiens, UniProt P51617). Kind of experiment: Adapta Universal Kinase Assay (ThermoFisher) against IRAK1. It is filed as biochemical. The note with it: Histone H3 (1-20) peptide substrate, 60 minutes at room temperature. The method, then:
To measure the IC50 values of the compounds herein against IRAK1, the Adapta Universal Kinase Assay (ThermoFisher) was used. Briefly, 100 nL of different concentrations of the compounds in 100% DMSO were added to each well of a 384-well plate (Corning Cat. #4512). 2.4 μL of 30 mM HEPES, 2.5 μL of 4× ATP solution (in water), and 5 μL of 2× IRAK1/Histone H3 (1-20) peptide mixture (prepared in 50 mM HEPES pH 7.5, 0.01% BRIJ-35, 10 mM MgCl2, 1 mM EGTA) were added to each well. The plate was shaken for 30 seconds and centrifuged for 1 minute at 1000×g. The plate was then incubated at room temperature for 60 minutes. 5 μL of Detection Mix was added to each well. The plate was shaken for 30 seconds and centrifuged for 1 minute at 1000×g. The plate was then incubated at room temperature for 60 minutes. The plate was subsequently read on a fluorescence plate reader, and the emissions ratio was calculated to determine the ratio of ATP to ADP. Emissions Ratio=AF647 Emission (665 nm)/Europium Emission (615 nm).

For experiment [2], the target named is T1, IRAK4 (Homo sapiens, UniProt Q9NWZ3).
T1 sequence (Q9NWZ3 1-460): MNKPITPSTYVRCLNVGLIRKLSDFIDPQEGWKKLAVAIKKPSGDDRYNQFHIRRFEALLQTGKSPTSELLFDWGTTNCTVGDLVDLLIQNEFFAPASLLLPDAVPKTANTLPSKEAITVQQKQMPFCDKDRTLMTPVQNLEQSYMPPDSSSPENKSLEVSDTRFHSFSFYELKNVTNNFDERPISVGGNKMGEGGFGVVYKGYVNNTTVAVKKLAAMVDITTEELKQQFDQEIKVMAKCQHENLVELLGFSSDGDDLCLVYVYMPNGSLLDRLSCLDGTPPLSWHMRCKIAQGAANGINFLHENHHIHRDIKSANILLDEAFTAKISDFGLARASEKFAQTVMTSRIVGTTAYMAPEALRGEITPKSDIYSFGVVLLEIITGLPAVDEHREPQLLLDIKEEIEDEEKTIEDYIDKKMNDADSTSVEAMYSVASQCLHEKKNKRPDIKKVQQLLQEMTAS
Nature of the experiment: Z'-LYTE assay (ThermoFisher) against IRAK4. As to conditions: Ser/Thr 07 substrate, 60 minutes at room temperature. It is filed as biochemical. The method, then:
To measure the IC50 values of compounds herein against IRAK4, a Z′-LYTE assay (ThermoFisher) was used. Briefly, 2.5 μL of different concentrations of the compounds in 1% DMSO were added to 2.4 μL kinase buffer (50 mM HEPES pH 7.5, 0.01% BRIJ-35, 10 mM MgCl2, 1 mM EGTA) in each well of a 384-well plate (Corning Cat. #3676). 5 μL of 2× IRAK4/Ser/Thr 07 mixture (prepared in 50 mM HEPES pH 7.5, 0.01% BRIJ-35, 10 mM MnCl2, 2 mM DTT, and 0.02% NaN3) and 2.5 μL of 4× ATP solution (4× ATP, 50 mM HEPES, pH 7.5, 0.01% BRIJ-35, 10 mM MgCl2, 1 mM EGTA) were added to each well. The plate was shaken for 30 seconds, and then incubated at room temperature for 60 minutes. 5 μL of a 1:100000 dilution of Development Reagent A was added to each well. The plate was shaken for 30 seconds and incubated for 60 minutes at room temperature. The plate was subsequently read on a fluorescence plate reader, and the emissions ratio was calculated to determine the ratio of Ser/Thr 07 phosphorylated by the reaction. Emissions Ratio=Coumarin Emission (443 nm)/Flourescein Emission (520 nm).

Molecules are shown by their SMILES. pIC50: −log10 of the molar value. Where only a bound is given, the exact number is not on record here.

Chain of IRAK1 (P51617 whole entry): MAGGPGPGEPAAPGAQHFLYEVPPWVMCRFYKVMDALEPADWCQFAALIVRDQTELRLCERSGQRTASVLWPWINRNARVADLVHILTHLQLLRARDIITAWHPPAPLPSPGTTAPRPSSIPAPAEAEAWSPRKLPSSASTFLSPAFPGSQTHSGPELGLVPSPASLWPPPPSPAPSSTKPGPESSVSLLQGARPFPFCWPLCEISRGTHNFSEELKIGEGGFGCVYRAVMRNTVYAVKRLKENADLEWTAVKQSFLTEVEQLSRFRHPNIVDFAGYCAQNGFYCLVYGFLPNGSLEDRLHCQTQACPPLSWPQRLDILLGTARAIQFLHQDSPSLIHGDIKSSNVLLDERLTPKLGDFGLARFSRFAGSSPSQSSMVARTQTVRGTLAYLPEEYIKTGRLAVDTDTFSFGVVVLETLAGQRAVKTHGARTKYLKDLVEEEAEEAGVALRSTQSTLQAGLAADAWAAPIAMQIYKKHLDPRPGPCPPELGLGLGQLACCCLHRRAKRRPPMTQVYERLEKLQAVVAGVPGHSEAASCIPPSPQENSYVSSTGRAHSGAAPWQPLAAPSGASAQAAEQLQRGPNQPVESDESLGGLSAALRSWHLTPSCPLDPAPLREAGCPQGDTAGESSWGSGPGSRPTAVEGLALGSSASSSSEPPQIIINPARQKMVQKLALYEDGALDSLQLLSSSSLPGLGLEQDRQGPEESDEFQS

Broadly, the pIC50 is −log10 of the IC50, conventionally taken in molar units. A high value points to a small IC50. For `C=CC(=O)N1C[C@@H](c2nc(-c3ccc(NC(=O)c4cccc(-c5ccn[nH]5)n4)nc3)no2)C[C@@H](C(F)(F)F)C1` [Compound 062], the pIC50 in experiment [1] is 7.03; in experiment [2], under 5.00.

For `C=CC(=O)N1CCC[C@H](C(=O)Nc2ccc(-c3ncc(-c4cccc(-c5ccn[nH]5)n4)s3)nc2)C1` [Compound 023], the pIC50 in experiment [1] was 8.22; in experiment [2], 6.61.

Consider `C=CC(=O)N1CCC[C@H](c2nc(-c3ccc(NC(=O)c4cccc(-c5[nH]ncc5Cl)n4)c(F)c3)no2)C1` [Compound 089, (S)-N-(4-(5-(1-acryloylpiperidin-3-yl)-1,2,4-oxadiazol-3-yl)-2-fluorophenyl)-6-(4-chloro-1H-pyrazol-5-yl)picolinamide], for which the pIC50 in experiment [1] is 7.68; in experiment [2], under 5.00.

Consider `C=CC(=O)N1CCC[C@H](c2nc(-c3ccc(NC(=O)c4cccc(-c5ccn[nH]5)n4)nc3)no2)C1` [Compound 001, (S)-N-(5-(5-(1-acryloylpiperidin-3-yl)-1,2,4-oxadiazol-3-yl)pyridin-2-yl)-6-(1H-pyrazol-5-yl)picolinamide], for which the values for the negative logarithm of the IC50 (pIC50) in experiment [1] and in experiment [2] were 7.70 and under 5.00, respectively.

Regarding `C=CC(=O)N1C[C@@H](c2nc(-c3ccc(NC(=O)c4cccc(-c5ccn[nH]5)n4)cc3)no2)C[C@H](C(F)(F)F)C1` [Compound 083], the values for the pIC50 in experiment [1] and in experiment [2] were 6.68 and under 5.00, respectively.

The compound `C=CC(=O)N1CC2(CC(c3nc(-c4ccc(NC(=O)c5cccc(-c6ccn[nH]6)n5)cc4)no3)C2)C1` [Compound 091] gave a pIC50 in experiment [2] of 5.30.

Regarding `C=CC(=O)N1CCC[C@H](C(=O)Nc2ccc(-c3nc(-c4cccc(-c5ccn[nH]5)n4)no3)nc2)C1` [Compound 020], the pIC50 in experiment [1] is 8.59; in experiment [2], 6.48.

Regarding `C=CC(=O)N1CCC[C@H](c2nc(-c3ccc(NC(=O)c4cccc(-c5ccn[nH]5)n4)cc3)no2)C1` [Compound 075], the pIC50 in experiment [1] is 7.44; in experiment [2] it was under 5.00.

Regarding `C=CC(=O)N1C[C@@H](c2nc(-c3ccc(NC(=O)c4cccc(-c5ccn[nH]5)n4)cc3)no2)CC(F)(F)C1` [Compound 082], the negative-log IC50 (pIC50) was 7.75 in experiment [1] and under 5.00 in experiment [2].

In the case of `C=CC(=O)N1CCC[C@H](C(=O)Nc2ccc(-c3cnc(-c4cccc(-c5ccn[nH]5)n4)[nH]3)cc2)C1` [Compound 070, (S)-N-(4-(2-(6-(1H-pyrazol-5-yl)pyridin-2-yl)-1H-imidazol-5-yl)phenyl)-1-acryloylpiperidine-3-carboxamide], the results for the pIC50 in experiment [1] and in experiment [2] were 5.92 and 5.48, respectively.

With `C=CC(=O)N1CC(C(F)(F)F)C[C@H](c2nc(-c3ccc(NC(=O)c4cccc(-c5ccn[nH]5)n4)nc3)no2)C1` (stereo partly drawn) [Compound 009, N-(5-(5-((3S)-1-acryloyl-5-(trifluoromethyl)piperidin-3-yl)-1,2,4-oxadiazol-3-yl)pyridin-2-yl)-6-(1H-pyrazol-5-yl)picolinamide], the pIC50 in experiment [1] was 8.40; in experiment [2], under 5.00.

Take `C=CC(=O)N1CCC[C@H](c2nc(-c3ccc(NC(=O)c4cccc(-c5ccn[nH]5)n4)c(Cl)c3)no2)C1` [Compound 079, (S)-N-(4-(5-(1-acryloylpiperidin-3-yl)-1,2,4-oxadiazol-3-yl)-2-chlorophenyl)-6-(1H-pyrazol-5-yl)picolinamide]: the pIC50 in experiment [1] was 8.35; in experiment [2], 6.01.

`C=CC(=O)N1CCC[C@H](c2nc(-c3ccc(NC(=O)c4cccc(-c5[nH]ncc5C)n4)cc3)no2)C1` [Compound 085, (S)-N-(4-(5-(1-acryloylpiperidin-3-yl)-1,2,4-oxadiazol-3-yl)phenyl)-6-(4-methyl-1H-pyrazol-5-yl)picolinamide]: the pIC50 is 8.17 in experiment [1] and 5.06 in experiment [2].

Take `C=CC(=O)N1CCC[C@H](c2nc(-c3ccc(NC(=O)c4cccc(-c5[nH]ncc5C)n4)nc3)no2)C1` [Compound 006, (S)-N-(5-(5-(1-acryloylpiperidin-3-yl)-1,2,4-oxadiazol-3-yl)pyridin-2-yl)-6-(4-methyl-1H-pyrazol-5-yl)picolinamide]: the negative-log IC50 (pIC50) is 8.09 in experiment [1] and under 5.00 in experiment [2].

For `C=CC(=O)N1CC2CC1[C@@H](c1nc(-c3ccc(NC(=O)c4cccc(-c5[nH]ncc5C)n4)nc3)no1)C2` (stereo partly drawn) [Compound 010, N-(5-(5-((6S)-2-acryloyl-2-azabicyclo[2.2.1]heptan-6-yl)-1,2,4-oxadiazol-3-yl)pyridin-2-yl)-6-(4-methyl-1H-pyrazol-5-yl)picolinamide], the pIC50 is 8.29 in experiment [1] and under 5.00 in experiment [2].

As to `C=CC(=O)N1CCC[C@H](c2nc(-c3ccc(NC(=O)c4cccc(-c5ccn[nH]5)n4)cn3)no2)C1` [Compound 061, (S)-N-(6-(5-(1-acryloylpiperidin-3-yl)-1,2,4-oxadiazol-3-yl)pyridin-3-yl)-6-(1H-pyrazol-5-yl)picolinamide], the pIC50 in experiment [1] was 7.07; in experiment [2], under 5.00.

On to `C=CC(=O)N1C[C@@H](c2nc(-c3ccc(NC(=O)c4cccc(-c5ccn[nH]5)n4)nc3)no2)C[C@H](C(F)(F)F)C1` [Compound 064], for which the figures for the pIC50 in experiment [1] and in experiment [2] were 7.52 and under 5.00, respectively.

With `C=CC(=O)N1CCC[C@H](c2nnc(-c3ccc(NC(=O)c4cccc(-c5ccn[nH]5)n4)nc3)o2)C1` [Compound 005, (S)-N-(5-(5-(1-acryloylpiperidin-3-yl)-1,3,4-oxadiazol-2-yl)pyridin-2-yl)-6-(1H-pyrazol-5-yl)picolinamide], the pIC50 in experiment [1] was 7.02; in experiment [2], 5.03.

With `C=CC(=O)N1CCC[C@H](c2nc(-c3ccc(NC(=O)c4cccc(-c5[nH]ncc5C)n4)c(F)c3)no2)C1` [Compound 088, (S)-N-(4-(5-(1-acryloylpiperidin-3-yl)-1,2,4-oxadiazol-3-yl)-2-fluorophenyl)-6-(4-methyl-1H-pyrazol-5-yl)picolinamide], the negative-log IC50 (pIC50) in experiment [1] was 7.90; in experiment [2], under 5.00.

Consider `C=CC(=O)N1CCC[C@H](C(=O)Nc2ccc(-c3nnc(-c4cccc(-c5ccn[nH]5)n4)o3)nc2)C1` [Compound 019], for which the pIC50 in experiment [1] was 8.30; in experiment [2], 6.48.

As to `C=CC(=O)N1CCC[C@H](C(=O)Nc2ccc(-c3nnc(-c4cccc(-c5ccn[nH]5)n4)[nH]3)nc2)C1` [Compound 018], the pIC50 in experiment [1] was 8.40; in experiment [2], 6.90.

`C=CC(=O)N1CCC[C@H](C(=O)Nc2ccc(-c3ncc(-c4cccc(-c5ccn[nH]5)n4)o3)nc2)C1` [Compound 022]: the pIC50 in experiment [1] was 8.27; in experiment [2], 6.42.

As to `C=CC(=O)N1CC(c2nc(-c3ccc(NC(=O)c4cccc(-c5[nH]ncc5Cl)n4)c(F)c3)no2)CC(F)(F)C1` (centres unmarked) [Compound 092, N-(4-(5-(1-acryloyl-5,5-difluoropiperidin-3-yl)-1,2,4-oxadiazol-3-yl)-2-fluorophenyl)-6-(4-chloro-1H-pyrazol-5-yl)picolinamide], the pIC50 in experiment [1] was 8.00; in experiment [2], under 5.00.

With `C=CC(=O)N1CCC[C@H](c2nc(-c3ccc(NC(=O)c4cccc(-c5[nH]ncc5Cl)n4)cc3)no2)C1` [Compound 086, (S)-N-(4-(5-(1-acryloylpiperidin-3-yl)-1,2,4-oxadiazol-3-yl)phenyl)-6-(4-chloro-1H-pyrazol-5-yl)picolinamide], the pIC50 in experiment [1] was 8.04; in experiment [2], under 5.00.

With `C=CC(=O)N1CCC[C@H](C(=O)Nc2ccc(Nc3nsc4ccc(-c5ccn[nH]5)nc34)cc2)C1` [Compound 025], the pIC50 in experiment [1] was 8.65; in experiment [2], 6.45.

Consider `C=CC(=O)N1CC2(CC(c3nc(-c4ccc(NC(=O)c5cccc(-c6ccn[nH]6)n5)cc4)no3)C2)C1` [Compound 077], for which, in experiment [2], the pIC50 was under 5.00.
